Results: PubChem BioAssay (NCI)
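Each compound was tested at five concentrations against cells in 96-well plates for 48 hours. Abbreviation: GI50, concentration required for 50% inhibition of growth. TGI: concentration producing complete growth inhibition.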

Experiments:
Assay in all cases: NCI tumour cell line growth inhibition, 48 h
RPMI-8226 leukemia = test system: RPMI-8226 leukemia
DLD-1 colon = test system: DLD-1 colon
LXFL 529 NSCLC = test system: LXFL 529 NSCLC
HT29 colon = test system: HT29 colon
HCC-2998 colon = test system: HCC-2998 colon
NCI-H23 lung = test system: NCI-H23 lung
EKVX NSCLC = test system: EKVX NSCLC
A549 NSCLC = test system: A549 NSCLC
KM12 colon = test system: KM12 colon
SK-MEL-2 melanoma = test system: SK-MEL-2 melanoma
786-0 renal = test system: 786-0 renal
HCT-15 colon = test system: HCT-15 colon
LOX IMVI melanoma = test system: LOX IMVI melanoma
IGROV1 ovarian = test system: IGROV1 ovarian
CAKI-1 renal = test system: CAKI-1 renal
UO-31 renal = test system: UO-31 renal
CCRF-CEM leukemia = test system: CCRF-CEM leukemia
KM20L2 colon = test system: KM20L2 colon
MALME-3M melanoma = test system: MALME-3M melanoma
SW-620 colon = test system: SW-620 colon
RXF 393 renal = test system: RXF 393 renal
SF-268 CNS = test system: SF-268 CNS
NCI-H460 lung = test system: NCI-H460 lung
SN12C renal = test system: SN12C renal
HOP-92 NSCLC = test system: HOP-92 NSCLC
COLO 205 colon = test system: COLO 205 colon
TK-10 renal = test system: TK-10 renal
NCI-H522 lung = test system: NCI-H522 lung
UACC-62 melanoma = test system: UACC-62 melanoma
HL-60(TB) leukemia = test system: HL-60(TB) leukemia
SK-OV-3 ovarian = test system: SK-OV-3 ovarian
SK-MEL-28 melanoma = test system: SK-MEL-28 melanoma
SNB-19 CNS = test system: SNB-19 CNS
M19-MEL melanoma = test system: M19-MEL melanoma
ACHN renal = test system: ACHN renal
DMS 114 small cell lung = test system: DMS 114 small cell lung
SNB-75 CNS = test system: SNB-75 CNS
NCI-H226 lung = test system: NCI-H226 lung
HOP-62 NSCLC = test system: HOP-62 NSCLC
XF 498 CNS = test system: XF 498 CNS
OVCAR-4 ovarian = test system: OVCAR-4 ovarian
SK-MEL-5 melanoma = test system: SK-MEL-5 melanoma
OVCAR-5 ovarian = test system: OVCAR-5 ovarian
OVCAR-8 ovarian = test system: OVCAR-8 ovarian
M14 melanoma = test system: M14 melanoma
A498 renal = test system: A498 renal
MOLT-4 leukemia = test system: MOLT-4 leukemia
SF-295 CNS = test system: SF-295 CNS
SF-539 CNS = test system: SF-539 CNS
K-562 leukemia = test system: K-562 leukemia
SR leukemia = test system: SR leukemia
OVCAR-3 ovarian = test system: OVCAR-3 ovarian
UACC-257 melanoma = test system: UACC-257 melanoma
HCT-116 colon = test system: HCT-116 colon
DMS 273 small cell lung = test system: DMS 273 small cell lung
RXF-631 renal = test system: RXF-631 renal
U251 CNS = test system: U251 CNS

In the case of `CC1(C)OC2OC(COC(=O)C(c3ccccc3)c3ccccc3)C3OC(C)(C)OC3C2O1` (stereo not given), the TGI (RPMI-8226 leukemia) is reported as 42.7 µM, the TGI (DLD-1 colon) is reported as greater than 100 µM and the GI50 (LXFL 529 NSCLC) is reported as greater than 100 µM. It also gave a TGI (LXFL 529 NSCLC) greater than 100 µM, a TGI (HT29 colon) greater than 100 µM and a GI50 (HCC-2998 colon) greater than 100 µM. It also gave a TGI (HCC-2998 colon) greater than 100 µM, a TGI (NCI-H23 lung) greater than 100 µM and a GI50 (EKVX NSCLC) greater than 100 µM. The TGI (EKVX NSCLC) was greater than 100 µM, the TGI (A549 NSCLC) was greater than 100 µM and the TGI (KM12 colon) was greater than 100 µM. For the same compound, the TGI (SK-MEL-2 melanoma) was greater than 100 µM, the TGI (786-0 renal) was greater than 100 µM and the TGI (HCT-15 colon) was greater than 100 µM. It also gave a TGI (LOX IMVI melanoma) greater than 100 µM, a GI50 (IGROV1 ovarian) greater than 100 µM and a TGI (IGROV1 ovarian) greater than 100 µM. For the same compound, the GI50 (CAKI-1 renal) was greater than 100 µM, the TGI (CAKI-1 renal) was greater than 100 µM and the TGI (UO-31 renal) was greater than 100 µM. It also gave a TGI (CCRF-CEM leukemia) greater than 100 µM, a TGI (KM20L2 colon) greater than 100 µM and a TGI (MALME-3M melanoma) greater than 100 µM. The TGI (SW-620 colon) was greater than 100 µM, the TGI (RXF 393 renal) was greater than 100 µM and the TGI (SF-268 CNS) was greater than 100 µM. The TGI (NCI-H460 lung) was greater than 100 µM, the TGI (SN12C renal) was greater than 100 µM and the TGI (HOP-92 NSCLC) was greater than 100 µM. For the same compound, the TGI (COLO 205 colon) was greater than 100 µM, the GI50 (TK-10 renal) was greater than 100 µM and the TGI (TK-10 renal) was greater than 100 µM. The TGI (NCI-H522 lung) was greater than 100 µM, the TGI (UACC-62 melanoma) was greater than 100 µM and the GI50 (HL-60(TB) leukemia) was 2.99 µM. For the same compound, the TGI (HL-60(TB) leukemia) was 13.8 µM, the GI50 (SK-OV-3 ovarian) was greater than 100 µM and the TGI (SK-OV-3 ovarian) was greater than 100 µM. For the same compound, the TGI (SK-MEL-28 melanoma) was greater than 100 µM, the TGI (SNB-19 CNS) was greater than 100 µM and the TGI (M19-MEL melanoma) was greater than 100 µM. It also gave a TGI (ACHN renal) greater than 100 µM, a TGI (DMS 114 small cell lung) greater than 100 µM and a TGI (SNB-75 CNS) of 87.2 µM. The GI50 (NCI-H226 lung) was greater than 100 µM, the TGI (NCI-H226 lung) was greater than 100 µM and the GI50 (HOP-62 NSCLC) was greater than 100 µM. The TGI (HOP-62 NSCLC) was greater than 100 µM, the TGI (XF 498 CNS) was 99.7 µM and the TGI (OVCAR-4 ovarian) was greater than 100 µM. For the same compound, the TGI (SK-MEL-5 melanoma) was 24.4 µM, the GI50 (OVCAR-5 ovarian) was greater than 100 µM and the TGI (OVCAR-5 ovarian) was greater than 100 µM. It also gave a TGI (OVCAR-8 ovarian) greater than 100 µM, a TGI (M14 melanoma) greater than 100 µM and a GI50 (A498 renal) greater than 100 µM. The TGI (A498 renal) was greater than 100 µM, the GI50 (MOLT-4 leukemia) was 3.76 µM and the TGI (MOLT-4 leukemia) was greater than 100 µM. For the same compound, the TGI (SF-295 CNS) was greater than 100 µM, the TGI (SF-539 CNS) was greater than 100 µM and the TGI (K-562 leukemia) was greater than 100 µM.
With `COC(=O)c1cc2ccccc2c2nc3ccccc3c(Cl)c12` the TGI (RPMI-8226 leukemia) was greater than 100 µM, the TGI (DLD-1 colon) was greater than 100 µM and the TGI (LXFL 529 NSCLC) was greater than 100 µM. It also gave a TGI (HT29 colon) greater than 100 µM, a TGI (HCC-2998 colon) greater than 100 µM and a TGI (NCI-H23 lung) greater than 100 µM. The TGI (EKVX NSCLC) was greater than 100 µM, the TGI (A549 NSCLC) was greater than 100 µM and the TGI (KM12 colon) was greater than 100 µM. For the same compound, the TGI (SK-MEL-2 melanoma) was greater than 100 µM, the TGI (786-0 renal) was greater than 100 µM and the TGI (HCT-15 colon) was greater than 100 µM. The TGI (SR leukemia) was greater than 100 µM, the TGI (OVCAR-3 ovarian) was greater than 100 µM and the TGI (LOX IMVI melanoma) was greater than 100 µM. It also gave a TGI (IGROV1 ovarian) greater than 100 µM, a TGI (CAKI-1 renal) greater than 100 µM and a TGI (UACC-257 melanoma) greater than 100 µM. For the same compound, the TGI (CCRF-CEM leukemia) was greater than 100 µM, the TGI (KM20L2 colon) was 29 µM and the TGI (MALME-3M melanoma) was greater than 100 µM. For the same compound, the TGI (SW-620 colon) was greater than 100 µM, the TGI (RXF 393 renal) was greater than 100 µM and the TGI (SF-268 CNS) was greater than 100 µM. For the same compound, the TGI (SN12C renal) was greater than 100 µM, the TGI (HCT-116 colon) was greater than 100 µM and the TGI (HOP-92 NSCLC) was greater than 100 µM. For the same compound, the TGI (COLO 205 colon) was greater than 100 µM, the TGI (TK-10 renal) was greater than 100 µM and the TGI (NCI-H522 lung) was greater than 100 µM. The TGI (UACC-62 melanoma) was greater than 100 µM, the TGI (HL-60(TB) leukemia) was greater than 100 µM and the TGI (SK-MEL-28 melanoma) was greater than 100 µM. It also gave a TGI (SNB-19 CNS) greater than 100 µM, a TGI (DMS 273 small cell lung) greater than 100 µM and a TGI (RXF-631 renal) greater than 100 µM. The TGI (M19-MEL melanoma) was greater than 100 µM, the TGI (ACHN renal) was greater than 100 µM and the TGI (DMS 114 small cell lung) was greater than 100 µM. The TGI (U251 CNS) was greater than 100 µM, the TGI (SNB-75 CNS) was greater than 100 µM and the TGI (HOP-62 NSCLC) was greater than 100 µM. It also gave a TGI (XF 498 CNS) greater than 100 µM, a TGI (OVCAR-4 ovarian) greater than 100 µM and a TGI (SK-MEL-5 melanoma) greater than 100 µM. It also gave a TGI (OVCAR-8 ovarian) greater than 100 µM, a TGI (M14 melanoma) greater than 100 µM and a TGI (A498 renal) greater than 100 µM. It also gave a TGI (MOLT-4 leukemia) greater than 100 µM, a TGI (SF-295 CNS) greater than 100 µM and a TGI (SF-539 CNS) greater than 100 µM. For the same compound, the TGI (K-562 leukemia) was greater than 100 µM.
For `CCN1C(=O)N2C(OC)c3ccccc3C(Br)C2(OC)C1=O` (stereo not given), the TGI (RPMI-8226 leukemia) was greater than 100 µM, the TGI (DLD-1 colon) was greater than 100 µM and the TGI (LXFL 529 NSCLC) was greater than 100 µM. The TGI (HCC-2998 colon) was greater than 100 µM, the TGI (NCI-H23 lung) was greater than 100 µM and the TGI (KM12 colon) was greater than 100 µM. The TGI (SK-MEL-2 melanoma) was greater than 100 µM, the TGI (HCT-15 colon) was greater than 100 µM and the TGI (SR leukemia) was greater than 100 µM. For the same compound, the TGI (OVCAR-3 ovarian) was greater than 100 µM, the TGI (LOX IMVI melanoma) was greater than 100 µM and the TGI (IGROV1 ovarian) was greater than 100 µM. For the same compound, the TGI (CAKI-1 renal) was greater than 100 µM, the TGI (UO-31 renal) was greater than 100 µM and the TGI (CCRF-CEM leukemia) was greater than 100 µM. It also gave a TGI (KM20L2 colon) greater than 100 µM, a TGI (MALME-3M melanoma) greater than 100 µM and a TGI (SW-620 colon) greater than 100 µM. It also gave a TGI (NCI-H460 lung) greater than 100 µM, a TGI (SN12C renal) greater than 100 µM and a TGI (COLO 205 colon) greater than 100 µM. It also gave a TGI (TK-10 renal) greater than 100 µM, a TGI (NCI-H522 lung) greater than 100 µM and a TGI (UACC-62 melanoma) greater than 100 µM. It also gave a TGI (HL-60(TB) leukemia) greater than 100 µM, a TGI (SK-OV-3 ovarian) greater than 100 µM and a TGI (SK-MEL-28 melanoma) greater than 100 µM. The TGI (SNB-19 CNS) was greater than 100 µM, the TGI (DMS 273 small cell lung) was greater than 100 µM and the TGI (RXF-631 renal) was greater than 100 µM. It also gave a TGI (M19-MEL melanoma) greater than 100 µM, a TGI (DMS 114 small cell lung) greater than 100 µM and a TGI (U251 CNS) greater than 100 µM. For the same compound, the TGI (SNB-75 CNS) was greater than 100 µM, the TGI (NCI-H226 lung) was greater than 100 µM and the TGI (HOP-62 NSCLC) was greater than 100 µM. It also gave a TGI (OVCAR-4 ovarian) greater than 100 µM, a TGI (SK-MEL-5 melanoma) greater than 100 µM and a TGI (OVCAR-5 ovarian) greater than 100 µM. The TGI (OVCAR-8 ovarian) was greater than 100 µM, the TGI (M14 melanoma) was greater than 100 µM and the TGI (A498 renal) was greater than 100 µM. The TGI (MOLT-4 leukemia) was greater than 100 µM, the TGI (SF-295 CNS) was greater than 100 µM and the TGI (K-562 leukemia) was greater than 100 µM.
